Measured values taken from PMC12430830, “Discovery of a Novel Cyclopeptide as Tyrosinase Inhibitor for Skin Lightening” (Skin Research and Technology, 2025).
Several values for one entry are separate records, joined by “and”; a condition that tells them apart may be missing. Identical values can stand only once. Like-named read-outs stand apart in the source and are kept apart here. Blank lines part the entries; values can stand above or below the compound they belong to.

Legend:
human melanocyte cells [1] = experiment: Melanin content in melanocytes; format: cell-based; conditions: n = 3
Description: (§1) Human melanocytes (Batch number: MC210817; Guangdong Biocell Biotechnology Co. Ltd.) were cultured in DMEM/F12 medium supplemented with 20% FBS (Hyclone) and 100 U/mL penicillin at 37°C with 5% CO2 atmosphere.
Upon reaching 80%–90% confluence, human melanocyte cells were dissolved with 0.25% trypsin to create a single‐cell suspension. Then, the cells were seeded in 6‐well plates at 200 000 cells per well and cultured for 12 h in a 37°C humidified incubator (5% CO2, V/V). When the confluence of cells reached 40%–60%, they were incubated with specific peptides or the positive control for 24 h. Following the incubation period, the supernatant was removed and the adherent cells were washed with PBS before being dispersed using trypsin (700 µL/well, 0.25%). The dispersed cells were collected and centrifuged at 10 000 rpm for 10 min. The cell pellet from each well was then treated with a mixture of distilled water (200 µL), anhydrous ethanol (500 µL), and ether (500 µL). The mixture was vortexed and allowed to stand at room temperature for 20 min, followed by centrifugation at 3000 rpm for 5 min. The precipitate was dissolved in 1 mL of 1 M NaOH containing 10% DMSO, then incubated at 80°C in a water bath for 40 minutes. After incubation, the solution was transferred to a 96‐well culture plate for optical density measurement at 405 nm. Each analysis was performed in triplicate and results were expressed as mean ± standard deviation (SD).

tyrosinase = experiment: Tyrosinase inhibition assay (intracellular tyrosinase, lysate of treated melanocytes, L‐DOPA); format: cell-based, human; conditions: cells treated 24 h, 475 nm, n = 3
Description: The inhibition of tyrosinase activity was assessed according to the reported method. The 6‐well plates were incubated at 37°C with human melanocyte cells at a density of 2.5×10^5 cells per well in a humidified atmosphere (5% CO2) for 24 h. Subsequently, these cells were exposed to glabridin (0.00625%, V/V) as the positive control, along with other tested compounds. Following treatment, cells were incubated at 37°C for 24 h using identical conditions. After treatment, cells in each well were rinsed with a PBS buffer solution (500 µL) and lysed with a lysate buffer (100 µL containing 0.5% sodium deoxycholate) at approximately 0°C for 1 h. The resulting cell lysate was then centrifuged at 12 000 rpm at 4°C for 20 min. The protein concentration in the supernatant was quantified by a BCA Assay Kit (Beyotime Biotechnology, China). Samples were transferred to a 96‐well plate in a total volume of 100 µL ([…] of lysate supernatant and 20 µL of 0.1% L‐DOPA) and incubated for 60 min at 37°C. The absorbance was measured at 475 nm using a Synergy multimode reader (BioTek Corporation, USA).

human melanocyte cells [2] = conditions: traditional skin‐lightening agent, at similar concentrations; general statement, no reference given; cited from earlier work
human melanocyte cells [3] = experiment: MTT cytotoxicity / growth inhibition in human melanocytes; format: cell-based; conditions: 24 h, n = 3
Description: as §1
For cytotoxicity, evaluation of peptides on human melanocyte cells was assessed using the standard MTT assay. Cells were seeded in 96‐well plates at a density of 10 000 cells per well and incubated for 12 h under standard culture conditions. […] A negative control group (culture medium containing 10% Dimethyl sulfoxide (DMSO), v/v) was included. Post‐treatment, 0.5 mg/mL MTT reagent was added to each well, followed by 4 h of incubation at 37°C. Formazan crystals formed in viable cells were dissolved in 150 µL DMSO, and absorbance was measured at 490 nm using a Synergy multimode reader (BioTek, USA). Each concentration was tested in triplicate. Statistical significance was determined via one‐way ANOVA (GraphPad Prism 5). All experiments were conducted in triplicate (n = 3).

Compound: CC1(C)C=Cc2c(ccc3c2OC[C@@H](c2ccc(O)cc2O)C3)O1 [glabridin]
inhibition of melanin production (human melanocyte cells [1]; glabridin 0.00625% v/v, 24 h): strong inhibitory effect on melanin production
tyrosinase inhibition rate (tyrosinase; glabridin 0.00625% v/v (positive control), L‐DOPA 60 min 37°C): approximately 14%

Compound: Oc1ccc(O)cc1 [hydroquinone]
cytotoxicity (human melanocyte cells [2]): exhibit cytotoxic effects

Compound: NC[C@H]1CC[C@H](C(=O)O)CC1 [tranexamic acid]
melanin reduction, single compounds (human melanocyte cells [1]; tranexamic acid 2.5 mg/mL, nonapeptide‐1 0.3% v/v, 24 h): melanin‐reducing effects, though not as strongly as CHP‐9 alone
tyrosinase inhibition rate (tyrosinase; tranexamic acid 2.5 mg/mL, L‐DOPA 60 min 37°C): 10.71%
change in cell viability (human melanocyte cells [3]; tranexamic acid at higher concentrations (5 and 10 mg/mL), not statistically significant): A slight reduction in cell viability

tyrosinase inhibition rate (tyrosinase; CHP‐9 1%, lysate with 0.1% L‐DOPA 60 min 37°C): 28.57%
Compound: Cyclo(Gln‐Gly‐Pro‐Gln‐Gly‐Pro) (head to tail) [CHP‐9]
inhibitory effect on melanin production compared with glabridin (human melanocyte cells [1]; CHP‐9 1% versus glabridin 0.00625% v/v): comparable to glabridin
melanin content after treatment (human melanocyte cells [1]; CHP‐9 1%, 24 h, OD 405 nm, mean ± SD, untreated control 30.90 ± 1.13 µg/mL): ~23.51 µg/mL and 23.51 ± 1.14 µg/mL
cell viability (human melanocyte cells [3]; CHP‐9 across effective concentrations): > 90%
cytotoxicity (human melanocyte cells [3]; at tested concentrations (0.0781–10 mg/mL)): noncytotoxic to human melanocytes
